From patent US9622998B2, “Rapid-acting, blood-arginine-level-increasable oral preparation comprising citrulline and arginine” (Kyowa Hakko Bio Co., Ltd., priority 2007, dated 2017)

Key:
[1] = test system: NO metabolite (NOx:NO2+NO3); assay: Plasma NO metabolite (NOx) after oral administration to rabbits (Experimental Example 2); format: in vivo; conditions: male New Zealand rabbits, fasted 16 hr, oral by sonde, groups 1 and 2: 2.85 mmol/kg, group 3: 1.43 mmol/kg each
Protocol: (§1) 14-Week-old male New Zealand rabbits (KITAYAMA LABES Co., Ltd.) were purchased, preliminarily bred for 28 days and divided into 3 groups (n=3 or 4). After fasting for 16 hr, L-citrulline and L-arginine were orally administered to the rabbits of group 1 and group 2, respectively, by a sonde to achieve 2.85 mmol/kg per rabbit for both (499.3 mg/kg and 496.5 mg/kg, respectively). Moreover, L-citrulline and L-arginine were orally administered to the rabbits of group 3 by a sonde to achieve 1.43 mmol/kg per rabbit (250.5 mg/kg and 249.1 mg/kg, respectively).
(§2) The blood was collected from the ear vein before administration, and 30 min, 1, 2 and 4 hr after administration, and subjected to quantification of L-arginine, NO metabolite and cGMP in plasma. The blood was collected in a 1.5 mL tube containing 1% heparin dispensed thereto in advance (for quantification of L-arginine) and a disodium ethylenediaminetetraacetate (EDTA-2Na)-added tube (for quantification of NO metabolite and cGMP), and centrifuged (12000 rpm, 10 min, 4° C.) to give plasma. In heparin plasma thereafter, 3% sulfosalicylic acid in the same amount as the plasma was added and blended, and the mixture was stood still on ice for 1 hr and centrifuged (12000 rpm, 10 min, 4° C.) to give deproteinized plasma as a sample for analysis.
(§3) L-arginine in the sample for analysis was quantified using an automatic amino acid analyzer (JOEL JLC-500/V), NO metabolite (NOx:NO2+NO3) was quantified using a nitrogen oxide analyzer (Eicom ENO10), and cGMP was quantified by […] (Amersham Pharmacia RPN226).
(§4) Moreover, the area under the blood concentration-time curves of L-arginine, NO metabolite and cGMP in plasma were calculated, and the results are shown in Table 2-Table 4.

cGMP = assay: Plasma cGMP after oral administration to rabbits (Experimental Example 2); format: in vivo; conditions: male New Zealand rabbits, fasted 16 hr, oral by sonde, groups 1 and 2: 2.85 mmol/kg, group 3: 1.43 mmol/kg each
Protocol: as §1, §2, §3, §4

SMILES	AUC of NO metabolite in plasma, 0-30 min [1] [nmol·h/mL]	AUC of NO metabolite in plasma, 0-1 hr [1] [nmol·h/mL]	AUC of cGMP in plasma, 0-30 min (cGMP) [nmol·h/mL]	AUC of cGMP in plasma, 0-1 hr (cGMP) [nmol·h/mL]
NC(=O)NCCC[C@H](N)C(=O)O [group 1, L-citrulline]	8.1	25.7	0.033	0.12
N=C(N)NCCC[C@H](N)C(=O)O [group 2, L-arginine]	0.3	10.1	0.028	0.10
